# Experimental data reported in patent publication US20240247015A1, “PHOSPHORUS DERIVATIVES AS NOVEL SOS1 INHIBITORS” (BAYER AKTIENGESELLSCHAFT, priority 2021, published 2024).
# Target: interaction of human SOS1 (SOS1) with human K-RasG12C (Homo sapiens (Human), UniProt Q07889)
# Assay: Biochemical assay: hK-RasG12C interaction assay with hSOS1 (HTRF)
# Type: binding
# Details: GST-hK-RasG12C with His-hSOS1, 60 min incubation at 20° C., mean, read-out: K-RasG12C - SOS interaction assay IC50 (mean)
# Protocol: Biochemical Assay: hK-RasG12C Interaction Assay with hSOS1 This assay quantifies the equilibrium interaction of human SOS1 (SOS1) with human K-Ras^G12^C (K-RasG12C). Detection of the interaction is achieved by measuring homogenous time-resolved fluorescence resonance energy transfer (HTRF) from antiGST-Europium (FRET donor) bound to GST-K-RasG12C to anti-6His-XL665 bound to His-tagged hSOS1 (FRET-acceptor). The assay buffer containes 5 mM HEPES pH 7.4 (Applichem), 150 mM NaCl (Sigma), […] (Promega), 1 mM DTT (Thermofisher), 0.05% BSA Fraction V, pH 7.0, (ICN Biomedicals), 0.0025% (v/v) Igepal (Sigma) and 100 mM KF (FLUKA). The expression and purification of N-terminally GST-tagged human K-RasG12C (termed GST-hK-RasG12C) and N-terminally His-tagged human SOS1 (termed His10-hSOS1) is described in WO 2019/201848, page 220 line 12-34 and page 222, line 13-25 (expression) and page 222, line 26 to page 223, line 17 (purification). Concentrations of protein batches used are optimized to be within the linear range of the HTRF signal. A Ras working solution is prepared in assay buffer containing typically 10 nM GST-hK-RasG12C and 2 nM antiGST-Eu(K) (Cisbio, France). A SOS1 working solution is prepared in assay buffer containing typically 20 nM His-hSOS1 and 10 nM anti-6His-XL665 (Cisbio, France). An inhibitor control solution is prepared in assay buffer containing nM anti-6His-XL665 without SOS1. Fifty nl of a 100-fold concentrated solution of the test compound in DMSO are transferred into a black microtiter test plate (384 or 1536, Greiner Bio-One, Germany). For this, either a Hummingbird liquid handler (Digilab, MA, USA) or an Echo acoustic system (Labcyte, CA, USA) is used. All steps of the assay are performed at 20° C. A volume of 2.5 μl of the Ras working solution is added to all wells of the test plate using a Multidrop dispenser (Thermo Labsystems). After 2 min preincubation, 2.5 μl of the SOS1 working solution are added to all wells except for those wells at the side of the test plate that are subsequently filled with 2.5 μl of the inhibitor control solution. After 60 min incubation the fluorescence is measured with a Pherastar (BMG, Germany) using the HTRF module (excitation 337 nm, emission 1: 620 nm, emission 2: 665 nm). The ratiometric data (emission 2 divided by emission 1) are normalized using the controls (DMSO=0% inhibition, inhibition control wells with inhibitor control solution=100% inhibition). Compounds are tested in duplicates at up to 11 concentrations (for 20 μM, 5,7 μM, 1,6 μM, 0.47 μM, 0.13 μM, 38 nM, 11 nM, 3.1 nM, 0.89 nM, 0.25 nM and 0.073 nM). IC50 values are calculated by 4-Parameter fitting using a commercial software package (Genedata Screener, Switzerland).
# Chain of interaction of human SOS1 (SOS1) with human K-RasG12C (Q07889 564-1049 limits assumed): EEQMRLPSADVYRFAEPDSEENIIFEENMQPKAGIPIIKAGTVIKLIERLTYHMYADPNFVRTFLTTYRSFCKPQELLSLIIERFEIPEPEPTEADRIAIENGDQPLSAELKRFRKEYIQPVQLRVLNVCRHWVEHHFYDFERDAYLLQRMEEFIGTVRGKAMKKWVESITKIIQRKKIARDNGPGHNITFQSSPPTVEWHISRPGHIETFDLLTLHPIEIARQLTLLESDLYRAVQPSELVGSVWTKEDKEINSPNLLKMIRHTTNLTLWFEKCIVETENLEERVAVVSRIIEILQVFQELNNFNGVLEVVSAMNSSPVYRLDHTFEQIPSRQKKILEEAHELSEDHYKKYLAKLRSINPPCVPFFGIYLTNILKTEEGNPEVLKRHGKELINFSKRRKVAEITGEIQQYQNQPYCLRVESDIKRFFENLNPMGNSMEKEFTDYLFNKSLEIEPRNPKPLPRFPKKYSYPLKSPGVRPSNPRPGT
row,Compound,IC50 [nM]
1,"COCC(F)(F)c1cccc([C@@H](C)Nc2nc(C)nc3cnc(P4(=O)CCCC4)cc23)c1F [Example 93, 1-[4-{{(1R)-1-[3-(1,1-difluoro-2-methoxyethyl)-2-fluorophenyl]ethyl}amino)-2-methylpyrido[3,4-d]pyrimidin-6-yl]-1lambda^5-phospholan-1-one]",37
2,"CCP(C)(=O)c1cc2c(N[C@H](C)c3cccc(C(F)(F)CO)c3F)nc(C)nc2cn1 (single isomer, unassigned) [Example 131]",11.5
3,"Cc1nc(N[C@H](C)c2cccc(C(F)(F)C(C)(C)O)c2F)c2cc(P(C)(C)=O)ncc2n1 [Example 3, 1-{3-[(1R)-1-{[6-(dimethylphosphoryl)-2-methylpyrido[3,4-d]pyrimidin-4-yl]amino}ethyl]-2-fluorophenyl}-1,1-difluoro-2-methylpropan-2-ol]",19.1
4,"Cc1nc(N[C@H](C)c2cccc(C(F)(F)CO)c2F)c2cc(P(C)(C)=O)nc(C)c2n1 [Example 124, 2-{3-[(1R)-1-{[6-(dimethylphosphoryl)-2,8-dimethylpyrido[3,4-d]pyrimidin-4-yl]amino}ethyl]-2-fluorophenyl}-2,2-difluoroethan-1-ol]",16.7
5,"Cc1nc(N[C@H](C)c2cccc(C(F)(F)F)c2C)c2cc(P3(=O)CCN(C(=O)CC#N)CC3)ncc2n1 [Example 162, 3-{4-[2-methyl-4-({(1R)-1-[2-methyl-3-(trifluoromethyl)phenyl]ethyl}amino)pyrido[3,4-d]pyrimidin-6-yl]-4-oxo-1,4lambda^5-azaphosphinan-1-yl}-3-oxopropanenitrile]",272
6,"Cc1nc(N[C@H](C)c2cccc(C(F)(F)C(C)(C)O)c2F)c2cc(P3(=O)CCCC3)c(C)nc2n1 [Example 20, 1-[4-({(1R)-1-[3-(1,1-difluoro-2-hydroxy-2-methylpropyl)-2-fluorophenyl]ethyl}amino)-2,7-dimethylpyrido[2,3-d]pyrimidin-6-yl]-1lambda^5-phospholan-1-one]",7.21
7,"Cc1nc(N[C@H](C)c2cccc(C(F)(F)F)c2C)c2cc(P3(=O)CCN(c4ccn(C)n4)CC3)ncc2n1 [Example 40, 4-[2-methyl-4-({(1R)-1-[2-methyl-3-(trifluoromethyl)phenyl]ethyl}amino)pyrido[3,4-d]pyrimidin-6-yl]-1-(1-methyl-1H-pyrazol-3-yl)-1,4lambda^5-azaphosphinan-4-one]",18.3
8,"Cc1nc(N[C@H](C)c2cccc(C(F)F)c2F)c2cc(P(C)(C)=O)ncc2n1 [Example 2, N-{(1R)-1-[3-(difluoromethyl)-2-fluorophenyl]ethyl}-6-(dimethylphosphoryl)-2-methylpyrido[3,4-d]pyrimidin-4-amine]",50.8
9,"Cc1nc(N[C@H](C)c2cccc(C(F)(F)C(C)(C)O)c2F)c2cc(P3(=O)CCCC3)ncc2n1 [Example 4, 1-[4-({(1R)-1-[3-(1,1-difluoro-2-hydroxy-2-methylpropyl)-2-fluorophenyl]ethyl}amino)-2-methylpyrido[3,4-d]pyrimidin-6-yl]-1lambda^5-phospholan-1-one]",12.8
10,Cc1nc(N[C@H](C)c2cccc(C(F)(F)F)c2C)c2cc(P3(=O)CCN(C(=O)C(F)F)CC3)ccc2n1 [Example 207],6.84
11,Cc1nc(N[C@H](C)c2cccc(C(F)(F)F)c2)c2cc(P3(=O)CCN(C(=O)C(F)F)CC3)ncc2n1 [Example 205],9.64
12,"CCP(C)(=O)c1cc2c(N[C@H](C)c3cccc(C(F)(F)C(C)(C)O)c3F)nc(C)nc2cn1 (single isomer, unassigned) [Example 69]",19.5
13,"CC(=O)N1CCP(=O)(c2cnc3nc(C)nc(N[C@H](C)c4cccc(C(F)(F)F)c4C)c3c2)CC1 [Example 147, 1-acetyl-4-[2-methyl-4-({(1R)-1-[2-methyl-3-(trifluoromethyl)phenyl]ethyl}amino)pyrido[2,3-d]pyrimidin-6-yl]-1,4lambda^5-azaphosphinan-4-one]",4.51
14,"Cc1nc(N[C@H](C)c2cccc(C(F)(F)F)c2C)c2cc(P3(=O)CCCC3)ccc2n1 [Example 104, 1-[2-methyl-4-{{(1R)-1-[2-methyl-3-(trifluoromethyl)phenyl]ethyl}amino)quinazolin-6-yl]-1lambda^5-phospholan-1-one]",18.8
15,"CCP(=O)(CC)c1cc2c(N[C@H](C)c3cccc(C(F)(F)CO)c3F)nc(C)nc2cn1 [Example 64, 2-{3-[(1R)-1-{[6-(diethylphosphoryl)-2-methylpyrido[3,4-d]pyrimidin-4-yl]amino}ethyl]-2-fluorophenyl}-2,2-difluoroethan-1-ol]",17.8
16,CC(=O)N1CCP(=O)(c2cc3c(N[C@H](C)c4cccc(C(F)F)c4C)nc(C)nc3cn2)CC1 [Example 190],5.9
17,"CCP(C)(=O)c1cc2c(N[C@H](C)c3cccc(C(F)(F)C(C)O)c3F)nc(C)nc2cn1 (single isomer, unassigned) [Example 75, (2R*)-1-{3-[(1R)-1-{{6-[ethyl(methyl)phosphoryl]-2-methylpyrido[3,4-d]pyrimidin-4-yl}amino)ethyl]-2-fluorophenyl}-1,1-difluoropropan-2-ol]",15.3
18,"Cc1nc(N[C@H](C)c2cccc(C(F)F)c2F)c2cc(P3(=O)CCN(C(=O)C4(C(F)F)CC4)CC3)ncc2n1 [Example 159, 1-[1-(difluoromethyl)cyclopropane-1-carbonyl]-4-[4-{{(1R)-1-[3-(difluoromethyl)-2-fluorophenyl]ethyl}amino)-2-methylpyrido[3,4-d]pyrimidin-6-yl]-1,4lambda^5-azaphosphinan-4-one]",12.7
19,"CCP(C)(=O)c1cc2c(N[C@H](C)c3cccc(C(F)(F)C(C)(C)O)c3F)nc(C)nc2cn1 (stereo partly drawn) [Example 67, 1-{3-[(1R)-1-{{6-[ethyl(methyl)phosphoryl]-2-methylpyrido[3,4-d]pyrimidin-4-yl}amino)ethyl]-2-fluorophenyl}-1,1-difluoro-2-methylpropan-2-ol]",66.9
20,"COC(C)(C)C(F)(F)c1cccc([C@@H](C)Nc2nc(C)nc3cnc(P4(=O)CCN(C(C)=O)CC4)cc23)c1F [Example 140, 1-acetyl-4-[4-({(1R)-1-[3-(1,1-difluoro-2-methoxy-2-methylpropyl)-2-fluorophenyl]ethyl}amino)-2-methylpyrido[3,4-d]pyrimidin-6-yl]-1,4lambda^5-azaphosphinan-4-one]",11.4
21,"CC(=O)N1CCP(=O)(c2cc3c(N[C@H](C)c4cccc(C(C)(F)F)c4)nc(C)nc3cn2)CC1 [Example 141, 1-acetyl-4-[4-({(1R)-1-[3-(1,1-difluoroethyl)phenyl]ethyl}amino)-2-methylpyrido[3,4-d]pyrimidin-6-yl]-1,4lambda^5-azaphosphinan-4-one]",12.8
22,"Cc1nc(N[C@H](C)c2cccc(C(F)(F)F)c2C)c2cc(P3(=O)CCN(C(=O)C(C)C)CC3)ncc2n1 [Example 171, 4-[2-methyl-4-{{(1R)-1-[2-methyl-3-(trifluoromethyl)phenyl]ethyl}amino)pyrido[3,4-d]pyrimidin-6-yl]-1-(2-methylpropanoyl)-1,4lambda^5-azaphosphinan-4-one]",6.76
23,"Cc1nc(N[C@H](C)c2cccc(C(F)(F)C(O)C(C)C)c2F)c2cc(P(C)(C)=O)ncc2n1 (single isomer, unassigned) [Example 87, (2R*)-1-{3-[(1R)-1-{[6-(dimethylphosphoryl)-2-methylpyrido[3,4-d]pyrimidin-4-yl]amino}ethyl]-2-fluorophenyl}-1,1-difluoro-3-methylbutan-2-ol]",2.86
24,"Cc1nc(N[C@H](C)c2cccc(C(F)(F)CO)c2F)c2cc(P(C)(=O)C(C)C)ncc2n1 (single isomer, unassigned) [Example 134]",25.2
25,"Cc1nc(N[C@H](C)c2cc(N)cc(C(F)(F)F)c2)c2cc(P3(=O)CCCC3)ncc2n1 [Example 95, 1-[4-{{(1R)-1-[3-amino-5-(trifluoromethyl)phenyl]ethyl}amino)-2-methylpyrido[3,4-d]pyrimidin-6-yl]-1lambda^5-phospholan-1-one]",23.9
